Structures can show the parent of a compound that is named as a salt.
Columns and labels:
[1] = target: T1, PGD2 receptor (Mus musculus, UniProt P70263); assay: Effect of PGD2 antagonist on the orexigenic action of PGD2, combined ICV administration (Experiment 2); format: in vivo; settings: mice, two hours after administration
T1 construct: injected into the third cerebral ventricle; from tissue; host or cells: living ddY mouse, brain (ICV injection into the third cerebral ventricle)
T1 sequence (P70263 1-357): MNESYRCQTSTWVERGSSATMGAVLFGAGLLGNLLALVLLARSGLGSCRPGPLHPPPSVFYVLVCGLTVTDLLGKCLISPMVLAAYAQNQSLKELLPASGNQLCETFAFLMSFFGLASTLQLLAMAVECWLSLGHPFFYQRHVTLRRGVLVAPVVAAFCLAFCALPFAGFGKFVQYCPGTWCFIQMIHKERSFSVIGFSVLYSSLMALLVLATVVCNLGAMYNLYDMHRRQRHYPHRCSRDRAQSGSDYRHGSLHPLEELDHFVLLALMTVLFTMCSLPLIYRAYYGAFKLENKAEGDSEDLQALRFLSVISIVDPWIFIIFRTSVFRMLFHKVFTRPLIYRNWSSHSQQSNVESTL
Procedure: (§1) The weight of food pellets was measured before and after ICV injection and cumulative food intake was calculated.
(§2) Values were expressed as the mean ± SEM. Analysis of variance (ANOVA) followed by Bonferroni's t-test was used to assess differences among groups. P values less than 0.05 were considered significant.
The groups, one of which was administered PGD2 alone and the other received combined administration of PGD2/PGD2 antagonist, were used to investigate the effect of PGD2 antagonist on the orexigenic action of PGD2. PGD2 antagonist, (±) 3-benzyl-5-(6-carboxyhexyl)-1-(2-cyclohexyl-2-hydroxyethylamino)hydantoin (BW A868C, Sigma-Aldrich) was used.

[2] = tested on: Male ddY mice; assay: Anorexigenic action of PGD2 antagonist, food intake of mice after ICV administration (Experiment 3 (1)); format: in vivo; settings: BW A868C 0.72 and 7.2 μg/mouse
Procedure: as §1
The PGD2 antagonist used in Experiment 2, i.e., (±) 3-benzyl-5-(6-carboxyhexyl)-1-(2-cyclohexyl-2-hydroxyethylamino)hydantoin (BW A868C, Sigma-Aldrich), was used to investigate anorexigenic action in mice. The compound was administered to mice via ICV injection (0.72 and 7.2 μg/mouse) as described in Experiment 1, and the food intake was compared with the group that received the vehicle (ACSF).

[3] = tested on: SD rat; assay: Cumulative food intake of fasted SD rat after ICV administration (Experiment 3 (2), Table 1); format: in vivo; settings: SD rat fasted 24 hours, 100 μg
Procedure: as §1, §2
(§3) The PGD2 antagonist, (Z)-7-[(1R,2R,3S,5S)]-2-(5-hydroxybenzo[b]thiophene-3-ylcarbonylamino)-10-norpinane-3-yl]heptan-5-enonic acid (formula IA-a1) was used to investigate anorexigenic action […]. The sodium salt of this compound was administered to SD rat, fasted for 24 hours, via ICV injection as described above (dosage: 0.1, 1, 10, 100 μg/rat), and the food intake was compared with the group that received vehicle (5% DMSO in saline).

[4] = Changes in body weight of fasted SD rat after ICV administration (Experiment 3 (2), Table 1); format: in vivo; settings: SD rat fasted 24 hours, 100 μg
Procedure: as §3

[5] = tested on: SD rat; assay: Cumulative food intake of SD rat after intraperitoneal administration (Experiment 3 (2), Table 2); format: in vivo; settings: i.p., 30 mg/kg
Procedure: as §1, §2
Also, another group of SD rat was administered the test compound via intraperitoneal administration (30 mg/kg) and the food intake was compared with the group that received vehicle (5% DMSO in saline).

[6] = tested on: Male ddY mice; assay: Food intake of mice after ICV administration of PGD2 (Experiment 1); format: in vivo, mouse
Procedure: as §1, §2

O=C(O)CCCCCCC1C(=O)N(Cc2ccccc2)C(=O)N1NCC(O)C1CCCCC1 (racemic) [BW A868C, (±)-3-benzyl-5-(6-carboxyhexyl)-1-(2-cyclohexyl-2-hydroxyethylamino)hydantoin]
effect on the orexigenic action of PGD2 (food intake) [1]: inhibited the orexigenic action of PGD2 completely | food intake compared to vehicle [2]: inhibition of food intake was observed

CC1(C)C2CC1[C@H](NC(=O)c1csc3ccc(O)cc13)[C@@H](C/C=C\CCCC(=O)O)C2 (some centres unmarked) [Compund (IA-a1) (Na salt)]
Cululative Food intake (g) 1 hr. ([3]; 1 hr.): 5.18 ± 0.47 g | Cululative Food intake (g) 2 hr. ([3]; 2 hr.): 6.15 ± 0.50 g | Cululative Food intake (g) 4 hr. ([3]; 4 hr.): 6.86 ± 0.49 g | Cululative Food intake (g) 24 hr. ([3]; 24 hr.): 25.71 ± 1.30 g | Changes in body weght (g) 1 hr. ([4]; 1 hr.): 0.89 ± 0.79 g | Changes in body weght (g) 2 hr. ([4]; 2 hr.): 2.89 ± 1.28 g | Changes in body weght (g) 4 hr. ([4]; 4 hr.): 1.07 ± 1.47 g | Changes in body weght (g) 24 hr. ([4]; 24 hr.): 7.20 ± 2.60 g | Cululative Food intake (g) 1 hr. ([5]; 1 hr.): 2.38 ± 0.41 g | Cululative Food intake (g) 2 hr. ([5]; 2 hr.): 4.30 ± 0.67 g | Cululative Food intake (g) 4 hr. ([5]; 4 hr.): 7.85 ± 0.66 g | Cululative Food intake (g) 24 hr. ([5]; 24 hr.): 32.05 ± 1.09 g

CCCCC[C@H](O)/C=C/[C@H]1C(=O)C[C@H](O)[C@@H]1C/C=C\CCCC(=O)O [PGD2, prostaglandin D2]
food intake versus control group ([6]; 0.2 μg PGD2/mouse, 60 and 120 min after the injection): significant increase in food intake | food intake versus control group ([6]; 2 μg PGD2/mouse, 60 and 120 min after the injection): significant increase in food intake | food intake versus control group ([6]; 20 μg PGD2/mouse): the food intake was temporally inhibited shortly after the injection, but the food intake was increased thereafter

Reference: patent US20050215609A1, “Novel uses of prostaglandin d2, prostaglandin d2 agonist and prostaglandin d2 antagonist” (priority 2002, published 2005)
